Test results reported in patent US20140179779A1, “Deuterium Substituted Fumarate Derivatives” (Biogen IDEC MA Inc., priority 2012, published 2014).
Structures can show the parent of a compound that is named as a salt.

Tests used:
[1] = tested on: patients with relapsing-remitting MS (RRMS); conditions: compared with placebo after two years of treatment; cited from earlier work
[2] = tested on: Nrf2; assay: Nrf2 activation in DLD-1 ARE-luciferase reporter cell line; format: cell-based, Human
Experimental: (§1) Human cancer cell line DLD-1 and breast cancer cell line MCF7 reporter stable cell lines were generated by transfection with a firefly luciferase reporter construct harboring the luciferase cDNA cloned downstream of eight catenated copies of the antioxidant response element ([…] ID NO.:1). See Wang et al. Cancer Res. 2006; 66:10983-94. To measure Nrf2 activation in the ARE-luciferase reporter cell lines, the cells were plated in 96-well plates at 20-50 k cells/well 24 hours prior to stimulation with the test compounds. […] The reporter cells were harvested 24 hours-48 hours after addition of the compounds and lysed for detection of luciferase activity. Luciferase activity in the lysates was monitored using the Bright-Glo Luciferase Assay System of Promega and Tecan Genios Pro plate reader. Luciferase induction in the compound-treated cells was calculated as fold change over the baseline activity detected in control cultures treated with DMSO-containing media.

[3] = tested on: Nrf2; assay: Nrf2 activation in MCF-7 ARE-luciferase reporter cell line; format: cell-based, Human
Experimental: as §1

[4] = DLD-1/ARE-E2, 24 hr Stimulation
[5] = DLD-1/ARE-E2, 48 hr Stimulation
[6] = MCF-7/ARE-D3, 24 hr Stimulation
[7] = MCF-7/ARE-D3, 48 hr Stimulation

| Compound | clinical relapses, accumulation of disability progression, and lesion number and volume [1] | Maximum Nrf2 Activation Fold Change [2, 4] [fold] | concentration at maximum fold change (@ [uM]) [2, 4] [µM] | Maximum Nrf2 Activation Fold Change [2, 5] [fold] | concentration at maximum fold change (@ [uM]) [2, 5] [µM] | Maximum Nrf2 Activation Fold Change [3, 6] [fold] | concentration at maximum fold change (@ [uM]) [3, 6] [µM] | Maximum Nrf2 Activation Fold Change [3, 7] [fold] | concentration at maximum fold change (@ [uM]) [3, 7] [µM] |
| --- | --- | --- | --- | --- | --- | --- | --- | --- | --- |
| COC(=O)/C=C/C(=O)OC [DMF, dimethyl fumarate] | significantly reduced |  |  |  |  |  |  |  |  |
| O=C(O)/C=C/C(=O)O.[2H]C([2H])([2H])OC(=O)/C=C/C(=O)O [Example 2, (^2H3)methyl fumaric acid ester] |  | 6 | 1000 | 14 | 1000 | 55 | 1000 | 81 | 1000 |
| COC(=O)/C=C/C(=O)O [MMF, monomethyl fumarate] |  | 5 | 1000 | 12 | 1000 | 75 | 1000 | 94 | 750 |
